{"source": "paper PMC4335062", "about": "“Data-Driven Prediction and Design of bZIP Coiled-Coil Interactions” (PLoS Computational Biology, 2015)", "assay_in_all_cases": "Direct-binding FRET assay", "key": {"HLF": {"biological_target": "T1, HLF (Homo sapiens, UniProt Q16534)", "T1 construct": "made in house", "T1 sequence (Q16534 225-288 limits assumed)": "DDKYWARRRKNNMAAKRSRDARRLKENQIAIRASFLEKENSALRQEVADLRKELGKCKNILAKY", "conditions": "mean or single, read-out: Kd", "experimental": "(§1) The direct binding assay was performed manually in 384-well plates and is similar to a previously described assay. Wells were filled with 20 μL of 1 mM TCEP-HCl. A 4 μM stock of acceptor protein was made fresh in 1 mM TCEP-HCl, and 20 μL was titrated in 2-fold dilutions over the wells. […] The direct-binding FRET data were fit as previously described. Briefly, the Kd of the designed peptide homodimer was experimentally determined and used with previously determined target homodimer Kd values to determine the heterodimer Kd. The homodimer Kd values used for the human bZIPs were from; experiments done by […] et al. used the same protein constructs for the human bZIP proteins, the same buffer conditions, and the same assay. The fitting used a system of ordinary differential equations to describe the concentrations of homo and heterodimers formed by the donor (D) and acceptor (A) as a function of the heterodimer Kd. MATLAB was used to simulate the binding experiment for different Kd values, and the value that gave the best agreement between simulation and experiment was assigned. A minimum 15% change in the donor fluorescence upon titrating the acceptor peptide from 0 to 1000 nM was required for a fit to be attempted. If this minimum was not met, the interaction was classified as “NS” for no signal change. […] These interactions were marked “AS” to indicate anomalous signal. We attributed this to interactions between the peptides, the dyes and the walls of the assay plates at low concentrations. These curves could not be fit, given their unusual shapes at low concentrations of acceptor. For such curves, we removed the first five points and re-fit the data. […] One example of this is increasing concentrations of acceptor causing an increase in donor fluorescence."}, "ATF5": {"biological_target": "T2, ATF5 (Homo sapiens, UniProt Q9Y2D1)", "T2 construct": "made in house", "T2 sequence (Q9Y2D1 208-271 limits assumed)": "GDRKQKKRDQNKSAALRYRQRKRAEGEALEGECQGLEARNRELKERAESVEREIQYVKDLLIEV", "conditions": "read-out: Kd", "experimental": "as §1"}, "JUNB": {"biological_target": "T3, JUNB (Homo sapiens, UniProt P17275)", "T3 construct": "made in house", "T3 sequence (P17275 268-331 limits assumed)": "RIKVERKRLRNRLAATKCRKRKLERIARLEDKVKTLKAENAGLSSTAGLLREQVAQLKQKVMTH", "conditions": "mean or single, read-out: Kd", "experimental": "as §1"}, "NFIL3": {"biological_target": "T4, NFIL3 (Homo sapiens, UniProt Q16649)", "T4 construct": "made in house", "T4 sequence (Q16649 73-136 limits assumed)": "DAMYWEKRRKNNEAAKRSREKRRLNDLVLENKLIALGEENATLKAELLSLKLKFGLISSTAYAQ", "conditions": "mean or single, read-out: Kd", "experimental": "as §1"}, "CREB3": {"biological_target": "T5, CREB3 (Homo sapiens, UniProt O43889)", "T5 construct": "made in house", "T5 sequence (O43889 150-213 limits assumed)": "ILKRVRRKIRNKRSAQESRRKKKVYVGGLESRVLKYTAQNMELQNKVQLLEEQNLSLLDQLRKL", "conditions": "mean or single, read-out: Kd", "experimental": "as §1"}, "BACH1": {"biological_target": "BACH1 (Homo sapiens, UniProt O14867)", "sequence (O14867 557-620 limits assumed)": "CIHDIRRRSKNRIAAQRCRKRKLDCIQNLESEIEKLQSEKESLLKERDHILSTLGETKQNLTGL", "design": "made in house", "conditions": "mean or single, read-out: Kd", "experimental": "as §1"}, "BACH2": {"biological_target": "BACH2 (Homo sapiens, UniProt Q9BYV9)", "sequence (Q9BYV9 646-709 limits assumed)": "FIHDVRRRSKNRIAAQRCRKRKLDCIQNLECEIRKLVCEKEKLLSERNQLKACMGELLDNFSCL", "design": "made in house", "conditions": "mean or single, read-out: Kd", "experimental": "as §1"}, "ATF6": {"biological_target": "ATF6 (Homo sapiens, UniProt P18850)", "sequence (P18850 306-369 limits assumed)": "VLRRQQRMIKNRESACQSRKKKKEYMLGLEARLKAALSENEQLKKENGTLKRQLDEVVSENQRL", "design": "made in house", "conditions": "mean or single, read-out: Kd", "experimental": "as §1"}, "MAF": {"biological_target": "MAF (Homo sapiens, UniProt O75444)", "design": "made in house", "conditions": "mean or single, read-out: Kd", "experimental": "as §1"}, "NFE2L1": {"biological_target": "NFE2L1 (Homo sapiens, UniProt Q14494)", "sequence (Q14494 654-717 limits assumed)": "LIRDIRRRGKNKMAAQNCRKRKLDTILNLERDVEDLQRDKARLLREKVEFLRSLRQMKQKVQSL", "design": "made in house", "conditions": "mean or single, read-out: Kd", "experimental": "as §1"}, "MAFB": {"biological_target": "MAFB (Homo sapiens, UniProt Q9Y5Q3)", "design": "made in house", "conditions": "mean or single, read-out: Kd", "experimental": "as §1"}, "[1]": {"conditions": "4°C, C-terminal rhodamine design"}, "[2]": {"conditions": "4°C, N-terminal rhodamine design"}, "[3]": {"conditions": "23°C, C-terminal rhodamine design"}, "[4]": {"conditions": "23°C, N-terminal rhodamine design"}, "[5]": {"conditions": "37°C, C-terminal rhodamine design"}, "[6]": {"conditions": "37°C, N-terminal rhodamine design"}}, "note": "Read-outs that look alike come from different tables or passages of the source. Where no end group is shown, it is not given here."}
{"sequence": "KRIAYLRQRIAELRNENHVLESRIQRMEKEKDALQQDRDHLEYEL [ATF5-d1]", "values": [{"measurement": "Kd", "setting": "HLF; [1]", "value": "> 5000", "unit": "nM"}, {"measurement": "Kd", "setting": "HLF; [2]", "value": "> 5000", "unit": "nM"}, {"measurement": "Kd", "setting": "HLF; [3]", "value": "> 5000", "unit": "nM"}, {"measurement": "Kd", "setting": "HLF; [4]", "value": "> 1000", "unit": "nM"}, {"measurement": "Kd", "setting": "HLF; [5]", "value": "> 5000", "unit": "nM"}, {"measurement": "Kd", "setting": "HLF; [6]", "value": "> 1000", "unit": "nM"}, {"measurement": "Kd", "setting": "ATF5; 4°C, C-terminal rhodamine design, mean or single", "value": 1.1, "unit": "nM"}, {"measurement": "Kd", "setting": "ATF5; 4°C, N-terminal rhodamine design, repeat 3", "value": "200 to 1000", "unit": "nM"}, {"measurement": "Kd", "setting": "ATF5; 37°C, C-terminal rhodamine design, mean or single", "value": 1680, "unit": "nM"}, {"measurement": "Kd", "setting": "ATF5; 37°C, N-terminal rhodamine design, repeat 1", "value": "> 1000", "unit": "nM"}, {"measurement": "Kd", "setting": "ATF5; 37°C, N-terminal rhodamine design, repeat 2", "value": "> 1000", "unit": "nM"}, {"measurement": "Kd", "setting": "ATF5; 37°C, N-terminal rhodamine design, repeat 3", "value": "> 5000", "unit": "nM"}, {"measurement": "Kd", "setting": "JUNB; [1]", "value": 3620, "unit": "nM"}, {"measurement": "Kd", "setting": "JUNB; [2]", "value": "> 1000", "unit": "nM"}, {"measurement": "Kd", "setting": "JUNB; [3]", "value": "> 1000", "unit": "nM"}, {"measurement": "Kd", "setting": "JUNB; [4]", "value": "> 1000", "unit": "nM"}, {"measurement": "Kd", "setting": "JUNB; [5]", "value": "> 1000", "unit": "nM"}, {"measurement": "Kd", "setting": "JUNB; [6]", "value": "> 1000", "unit": "nM"}, {"measurement": "Kd", "setting": "NFIL3; [1]", "value": "> 1000", "unit": "nM"}, {"measurement": "Kd", "setting": "NFIL3; [2]", "value": "> 1000", "unit": "nM"}, {"measurement": "Kd", "setting": "NFIL3; [3]", "value": "> 1000", "unit": "nM"}, {"measurement": "Kd", "setting": "NFIL3; [4]", "value": "> 1000", "unit": "nM"}, {"measurement": "Kd", "setting": "NFIL3; [5]", "value": "> 1000", "unit": "nM"}, {"measurement": "Kd", "setting": "NFIL3; [6]", "value": "> 1000", "unit": "nM"}, {"measurement": "Kd", "setting": "CREB3; [1]", "value": 147, "unit": "nM"}, {"measurement": "Kd", "setting": "CREB3; [2]", "value": "> 1000", "unit": "nM"}, {"measurement": "Kd", "setting": "CREB3; [3]", "value": "> 5000", "unit": "nM"}, {"measurement": "Kd", "setting": "CREB3; [4]", "value": "> 1000", "unit": "nM"}, {"measurement": "Kd", "setting": "CREB3; [5]", "value": "200 to 1000", "unit": "nM"}, {"measurement": "Kd", "setting": "CREB3; [6]", "value": "> 1000", "unit": "nM"}, {"measurement": "Kd", "setting": "BACH1; [1]", "value": "> 1000", "unit": "nM"}, {"measurement": "Kd", "setting": "BACH1; [2]", "value": "> 5000", "unit": "nM"}, {"measurement": "Kd", "setting": "BACH1; [3]", "value": "> 1000", "unit": "nM"}, {"measurement": "Kd", "setting": "BACH1; [4]", "value": "> 5000", "unit": "nM"}, {"measurement": "Kd", "setting": "BACH1; [5]", "value": "> 5000", "unit": "nM"}, {"measurement": "Kd", "setting": "BACH1; [6]", "value": "> 1000", "unit": "nM"}, {"measurement": "Kd", "setting": "BACH2; [1]", "value": "> 5000", "unit": "nM"}, {"measurement": "Kd", "setting": "BACH2; [2]", "value": "> 1000", "unit": "nM"}, {"measurement": "Kd", "setting": "BACH2; [3]", "value": "> 5000", "unit": "nM"}, {"measurement": "Kd", "setting": "BACH2; [4]", "value": "> 5000", "unit": "nM"}, {"measurement": "Kd", "setting": "BACH2; [5]", "value": "> 5000", "unit": "nM"}, {"measurement": "Kd", "setting": "BACH2; [6]", "value": "> 5000", "unit": "nM"}, {"measurement": "Kd", "setting": "ATF6; [1]", "value": "> 5000", "unit": "nM"}, {"measurement": "Kd", "setting": "ATF6; [2]", "value": "> 5000", "unit": "nM"}, {"measurement": "Kd", "setting": "ATF6; [3]", "value": "> 1000", "unit": "nM"}, {"measurement": "Kd", "setting": "ATF6; [4]", "value": "> 5000", "unit": "nM"}, {"measurement": "Kd", "setting": "ATF6; [5]", "value": "> 1000", "unit": "nM"}, {"measurement": "Kd", "setting": "ATF6; [6]", "value": "> 5000", "unit": "nM"}, {"measurement": "Kd", "setting": "MAF; [1]", "value": 790, "unit": "nM"}, {"measurement": "Kd", "setting": "MAF; [2]", "value": "> 5000", "unit": "nM"}, {"measurement": "Kd", "setting": "MAF; [3]", "value": "> 5000", "unit": "nM"}, {"measurement": "Kd", "setting": "MAF; [4]", "value": "> 5000", "unit": "nM"}, {"measurement": "Kd", "setting": "MAF; [5]", "value": "> 1000", "unit": "nM"}, {"measurement": "Kd", "setting": "NFE2L1; [1]", "value": "> 5000", "unit": "nM"}, {"measurement": "Kd", "setting": "NFE2L1; [2]", "value": "> 1000", "unit": "nM"}, {"measurement": "Kd", "setting": "NFE2L1; [3]", "value": "> 5000", "unit": "nM"}, {"measurement": "Kd", "setting": "NFE2L1; [4]", "value": "> 1000", "unit": "nM"}, {"measurement": "Kd", "setting": "NFE2L1; [5]", "value": "> 5000", "unit": "nM"}, {"measurement": "Kd", "setting": "NFE2L1; [6]", "value": "> 1000", "unit": "nM"}, {"measurement": "Kd", "setting": "MAFB; [1]", "value": 725, "unit": "nM"}, {"measurement": "Kd", "setting": "MAFB; [2]", "value": "> 5000", "unit": "nM"}, {"measurement": "Kd", "setting": "MAFB; [3]", "value": "> 5000", "unit": "nM"}, {"measurement": "Kd", "setting": "MAFB; [5]", "value": "> 1000", "unit": "nM"}, {"measurement": "Kd", "setting": "MAFB; [6]", "value": "> 5000", "unit": "nM"}]}
